According to US5506361A, “Imidazobenzoquinones and composition for preventing or treating hypertension or congestive heart failure containing the same” (TheUpjohn Company, priority 1991, dated 1996):

Columns and labels:
[1] = target: angiotensin II mesenteric artery receptor; assay: In vitro angiotensin II mesenteric artery receptor binding assay; conditions: test 1); 125I-Ang II 0.2 nM, rat mesenteric artery membrane fraction, 22° C., 90 min
Method: 1) In vitro angiotensin II mesenteric artery receptor binding assay
According to the method (1) by Gunther et at., a membrane fraction was prepared from mesenteric artery of a male rat, 50 μg protein equivalent thereof and 0.2 nM ^125 I-Ang II as well as various concentrations of test compounds were incubated at 22° C. for 90 min. in 200 μl reaction volume of incubation buffer (50 mM Tris-HCl, 120 mM NaCl, 5 mM MgCl2, 0.25% bovine serum albumin, pH7.2). This was cooled, and the reaction was stopped by addition of ice-cooled phosphate buffer (10 mM phosphate, 140 mM NaCl, pH7.4, hereinafter referred to as PBS), and then the reaction solution was filtered through a glass fiber filter (Whatman CF/B), the filter was washed, dried, and then the radioactivity of captured ^125 I-angiotensin II which bound to the receptor was measured by γ-counter. Non-specific binding mount was obtained from the reaction in the presence of 1 μM of unlabeled angiotensin II. The test compound was tested at the concentration of 0.01 to 1 μM, and those that inhibited more than 50% of total specific binding mount at 1 μM was determined as an active compound, and 50% inhibiting concentration (IC50) was obtained [see Gunther, S., Gimbrone, M. A. and Alexander, R. W., Circ. Res., 17:278-286, 1980].

[2] = target: adrenal cortex angiotensin II receptor; assay: In vitro adrenal cortex angiotensin II receptor binding assay; conditions: test 2); membrane fraction from adrenal cortex of male rat
Method: 2) In vitro adrenal cortex angiotensin II receptor binding assay
According to the method by Capponi et at. (1), angiotensin II receptor binding assay was carried out by preparing a membrane fraction from an adrenal cortex of a male rat and using this as a receptor material in the same manner as in the above-described pharmacological test 1) [see Capponi, A. M. and Catt, K., J. Biol. Chem. 254:5120-5127(1979)].

[3] = tested on: angiotensin II constriction in isolated rabbit thoracic aorta; assay: Antagonism to angiotensin II constriction in an isolated rabbit thoracic aorta; type: cell-based; conditions: test 3); 10^-6 M test compound, 20 min; pA2 = -logKB
Method: 3) Antagonism to angiotensin II constriction in an isolated rabbit thoracic aorta
A rectangular strip-like sample of thoracic aorta isolated from an anethetized rabbit was prepared, and this was suspended at 2.0 g of loaded tension in a Magnus tube filled with Krebs-Henseleitoid nutrition solution which was well aerated with 95% O2 -5% CO2, and the constriction tension was measured using an isometric transducer. After the tension of the sample at rest became stable, accumulative administration of angiotensin II was carried out to obtain a concentration-action curve. Thereafter, the sample was washed with the same nutrition solution, and then 10^-6 M test compound was treated for 20 min. to obtain again a concentration-action curve of angiotertsin II. The results were obtained as followed: generated maximum tension at the first accumulative administration of angiotensin II was regarded as 100%, and the 50% effective concentration (ED50) was obtained in the presence or absence of the test compound, and pA2 value was calculated according to the following equations:
pA2 =-logKB KB =C/{(A'/A)-1}
C: concentration of the test compound (M)
A': ED50 in the presence of test compound (M)
A:ED50 in the absence of the test compound (M)

[4] = tested on: blood pressure increasing by angiotensin II; assay: Antagonism to blood pressure increasing by angiotensin II in a spine destroyed rat; type: in vivo, Wistar rat; conditions: Rattus norvegicus; test 4); intravenous; 3 μg/kg angiotensin II i.v.; inhibition of blood pressure increase
From the text: 4)Antagonism to blood pressure increasing by angiotensin II in a spine destroyed rat
Wistar rat anesthetized with pentobarbital was fixed at dorsal position, and a cannula for measuring blood pressure was inserted into sinister arteria carotis communis, and a cannula for administration of the test compound into dexter external jugular vein and a cannula for administration of angiotensin II into sinister external jugular vein, arebilateral nervous vagus was cut, and artificial respiration was carried out. A thin bar made of metal was stabbed into spinal column through sininster orbita to destroy spine. Blood pressure was recorded on polygraph via pressure transducer from an arterial cannula. After blood pressure was stable for more than 30 min., 3μg/kg of angiotensin II was administered intravenously four times every 15 min., and every 5 min. before the administration of angiotensin II from the second admininstration onward, a solvent, a lower dose of the test compound, and a higher dose of the test compound were admininstered intravenously in this order to observe the blood pressure increasing response by angiotensin II. ED50 values were calculated from the inhibiting rate when the first blood pressure increase by angiotensin II was regarded as 100%.

SMILES | IC50 [1] | IC50 [2] | pA2 [3] | ED50 [4]
CCCCc1nc2c(n1Cc1ccc(-c3ccccc3C(=O)O)cc1)C(=O)c1ccccc1C2=O [Compound No. 1, 1-[(2'-Carboxybiphenyl-4-yl)methyl]-2-n-butyl-1H-naphthimidazol-4,9-dione] | 610 nM | 540 nM | 6.64 | 22.6 mg/kg
CCCCc1nc2c(n1Cc1ccc(-c3ccccc3C(=O)OC(C)(C)C)cc1)C(=O)c1ccccc1C2=O [Compound No. 2, 1-[(2'-t-Butoxycarbonylbiphenyl-4-yl)methyl]-2-n-butyl-1H-naphthimidazol-4,9-dione] | 50 nM | 48 nM | 7.60 | –
